Assay results taken from patent publication US20250270256A1, “NOVEL ANTIMICROBIAL PEPTIDE WITH EXCELLENT MICROBIAL CYTOPLASM ELUTION EFFECT” (CELLICON LAB INC., priority 2021, published 2025).
Entries after “also recorded” stand apart in the source; their conditions may differ. Read-outs that look alike come from different tables or passages of the source. Where no end group is shown, it is not given here.

What was measured:
[1] = tested on: Escherichia coli; type: cell-based; conditions: for antimicrobial activity against Escherichia coli (in words): comparison between peptides, FIGS. 1A-4A
Experimental: Specifically, in order to evaluate the antimicrobial activity, the antimicrobial activity against Escherichia coli was measured, and Escherichia coli was treated with antimicrobial peptides, and cell viability was measured and compared.
In order to test the antimicrobial efficacy of antimicrobial peptides, Escherichia coli was cultured in LB medium for about 8 hours, and then the cultured bacteria were dispensed into a 96-well plate. Antimicrobial peptide samples at various concentrations were added into the respective wells, and incubation was performed at 37° C. for 24 hours.
In order to evaluate the antimicrobial activity against Escherichia coli, MIC (minimum inhibitory concentration) and IC50 were additionally measured in addition to the experiments conducted in Examples 1-1 and 1-2.
Specifically, an antimicrobial efficacy experiment was used as the experimental method, and the MIC and IC50 values for the experimental results were calculated by evaluating the minimum inhibitory concentration and the 50% inhibitory concentration with the absorbance and OD value, respectively.

[2] = tested on: Candida albicans; type: cell-based
Experimental: (§1) In order to evaluate whether the antimicrobial peptides of the present disclosure have antimicrobial activity against bacteria other than Escherichia coli, antimicrobial effects against Escherichia coli, Staphylococcus aureus, Pseudomonas aeruginosa, and Candida albicans, which were strains announced by the Ministry of Food and Drug Safety, were examined.
(§2) Specifically, Escherichia coli, Staphylococcus aureus, and Pseudomonas aeruginosa were cultured using LB medium, and Candida albicans was cultured using YM medium, and then the cultured bacteria were dispensed into a 96-well plate. Antimicrobial peptide samples at various concentrations were added into the respective wells, and incubation was performed at 37° C. for 24 hours.

[3] = tested on: Escherichia coli; type: cell-based
Experimental: as §1, §2

[4] = tested on: Pseudomonas aeruginosa; type: cell-based
Experimental: as §1, §2

[5] = tested on: Staphylococcus aureus; type: cell-based
Experimental: as §1, §2

[6] = tested on: Human keratinocytes (HaCaT); conditions: 24 hours, comparison between peptides, FIGS. 1B-4B
Experimental: Therefore, cytotoxicity to human keratinocytes was also evaluated by treating human keratinocytes with antimicrobial peptides and measuring cell viability.
Human keratinocytes (HaCaT) were purchased from ATCC (American Type Culture Collection, USA) and cultured in Dulbecco's modified Eagle's medium (DMEM, Gibco, USA) containing 10% fetal bovine serum (FBS, Gibco, USA) and 1% antibiotic-antimycotic (Gibco, USA) at 37° C. in a 5% CO2 incubator.
MTT assay was performed to determine the viability of HaCaT cells against antimicrobial peptides. HaCaT cells were cultured in a 96-well plate at 2×10^5 cells/mL for 24 hours, then treated with samples at various concentrations, and cultured again for 24 hours. The culture medium was removed, and the cells were treated with MTT solution (0.5 mg/mL in PBS). After 4 hours, the MTT solution was removed, DMSO was added to each well, and formazan was dissolved at 37° C. for 30 minutes. Absorbance was measured at 570 nm using a microplate reader (Molecular Devices Spectra MAX, Sunnyvale, CA, USA).

[7] = tested on: Escherichia coli; assay: Disk diffusion test (Kirby-Bauer): Escherichia coli; type: cell-based; conditions: 10 μL sample, 37° C. for 16 hours
Experimental: (§3) In order to perform a disk diffusion test for the four kinds of bacteria, the following experiment was conducted.
(§4) After Escherichia coli, Staphylococcus aureus, Pseudomonas aeruginosa, and Candida albicans were cultured in the respective media, a certain amount of the cultured bacteria was spread on unhardened solid media, and then the media were hardened. On the surface of the hardened solid medium, 10 μL of antimicrobial peptide sample was placed, a dry 3M paper disk was put thereon, then incubation was performed at 37° C. for 16 hours, and the size of the zone of inhibition was observed.

[8] = tested on: Staphylococcus aureus; assay: Disk diffusion test (Kirby-Bauer): Staphylococcus aureus; type: cell-based; conditions: 10 μL sample, 37° C. for 16 hours
Experimental: as §3, §4

[9] = tested on: Pseudomonas aeruginosa; assay: Disk diffusion test (Kirby-Bauer): Pseudomonas aeruginosa; type: cell-based; conditions: 10 μL sample, 37° C. for 16 hours
Experimental: as §3, §4

[10] = tested on: Candida albicans; assay: Disk diffusion test (Kirby-Bauer): Candida albicans; type: cell-based; conditions: 10 μL sample, 37° C. for 16 hours
Experimental: as §3, §4

[11] = tested on: Escherichia coli; assay: SEM analysis of Escherichia coli treated with peptide; type: cell-based; conditions: Escherichia coli treated for 30 minutes
Experimental: In order to closely examine the effect of the antimicrobial peptide of the present disclosure on microorganisms, Escherichia coli was treated with the peptide of SEQ ID NO: 6 for 30 minutes, and then the antimicrobial effect was analyzed using a scanning electron microscope (SEM).
Specifically, for SEM analysis, Escherichia coli was cultured using LB medium, then a certain amount of cultured Escherichia coli was taken and treated with the peptide of SEQ ID NO: 6 for 30 minutes, washed with PBS 2 times, and then fixed with a primary fixative of 2% paraformaldehyde in PBS for 2 hours. After fixation, washing with PBS was performed 2 times, dehydration with 30%, 50%, 70%, 80%, 95%, and 100% ethanol was performed for 10 minutes in each step (the last treatment with 100% ethanol was repeated 3 times), and the pellets were lyophilized. After platinum coating using a coater, analysis by SEM was conducted.

[12] = Escherichia coli, 24 hours at 37° C., absorbance 600 nm
[13] = Escherichia coli, 24 hours at 37° C., absorbance 600 nm, read-out: IC50
[14] = Candida albicans, YM medium, 24 hours at 37° C., read-out: IC50
[15] = Escherichia coli, LB medium, 24 hours at 37° C., read-out: IC50
[16] = Pseudomonas aeruginosa, LB medium, 24 hours at 37° C., read-out: IC50
[17] = Staphylococcus aureus, LB medium, 24 hours at 37° C., read-out: IC50

| Molecule | MIC [1, 12] [µM] | IC50 [1, 13] [µM] | IC50 [2, 14] [µM] | IC50 [3, 15] [µM] | IC50 [4, 16] [µM] | IC50 [5, 17] [µM] | antimicrobial activity against Escherichia coli (in words) [1] | toxicity level to human keratinocytes (in words) [6] | zone of inhibition [7] | zone of inhibition [8] | zone of inhibition [9] | zone of inhibition [10] | effect on cell membrane observed by SEM [11] | IC50 ([1]; 24 h) [µM] | MIC ([1]; 24 h) [µM] | IC50 ([2]; 24 h) [µM] | IC50 ([3]; 24 h) [µM] | IC50 ([4]; 24 h) [µM] | IC50 ([5]; 24 h) [µM] |
| --- | --- | --- | --- | --- | --- | --- | --- | --- | --- | --- | --- | --- | --- | --- | --- | --- | --- | --- | --- |
| RKLFKRILRYLK [SEQ ID NO: 5, H2N-[Arg-Lys-Leu-Phe-Lys-Arg-Ile-Leu-Arg-Tyr-Leu-Lys]-CO2H] | 62.5 | 12 | 11 | 12 | 9 | 15 | – | – | – | – | – | – | – | – | – | – | – | – | – |
| CC[C@H](C)[C@H](NC(=O)[C@H](CCCCN)NC(=O)[C@H](CCCCN)NC(=O)[C@H](Cc1ccccc1)NC(=O)[C@H](CC(C)C)NC(=O)[C@H](CCCCN)NC(=O)[C@@H](N)CCCCN)C(=O)N[C@@H](CC(C)C)C(=O)N[C@@H](CCCCN)C(=O)N[C@@H](Cc1ccc(O)cc1)C(=O)N[C@@H](CC(C)C)C(=O)N[C@@H](CCCCN)C(=O)O [SEQ ID NO: 1, H2N-[Lys-Lys-Leu-Phe-Lys-Lys-Ile-Leu-Lys-Tyr-Leu-Lys]-CO2H] | – | – | 19 | 21 | 12 | 22 | remarkably increased compared to that of the known peptide | maintained at a similar level to that of the known peptide | – | – | – | – | – | – | – | – | – | – | – |
| RRLFRRILRYLR [SEQ ID NO: 2, H2N-[Arg-Arg-Leu-Phe-Arg-Arg-Ile-Leu-Arg-Tyr-Leu-Arg]-CO2H] | 62.5 | 14 | 13 | 14 | 10 | 17 | remarkably increased compared to that of the peptide of SEQ ID NO: 1; also recorded: remarkably excellent compared to that of the peptides of SEQ ID NO: 3 and SEQ ID NO: 4 | maintained at a level similar to that of SEQ. ID NO: 1 peptide; also recorded: greatly decreased compared to that of the peptides of SEQ ID NO: 3 and SEQ ID NO: 4 | – | – | – | – | – | – | – | – | – | – | – |
| KRLFRKILKYLR [SEQ ID NO: 6, H2N-[Lys-Arg-Leu-Phe-Arg-Lys-Ile-Leu-Lys-Tyr-Leu-Arg]-CO2H] | 31.25 | 9 | 6 | 9 | 4 | 10 | most remarkably excellent | – | transparent zones of inhibition with clear borders | transparent zones of inhibition with clear borders | transparent zones of inhibition with clear borders | transparent zones of inhibition with clear borders | entire cell membrane of Escherichia coli is destroyed to form large pores and elution of cell contents of the bacteria is observed | – | – | – | – | – | – |
| RKLFRKILKYLR [SEQ ID NO: 8, H2N-[Arg-Lys-Leu-Phe-Arg-Lys-Ile-Leu-Lys-Tyr-Leu-Arg]-CO2H] | 31.25 | 10 | 8 | 10 | 5 | 10 | most remarkably excellent | – | – | – | – | – | – | – | – | – | – | – | – |
| H-KRLFKRILRYLK-OH [SEQ ID NO: 7, H2N-[Lys-Arg-Leu-Phe-Lys-Arg-Ile-Leu-Arg-Tyr-Leu-Lys]-CO2H] | – | – | – | – | – | – | – | – | – | – | – | – | – | 11 | 62.5 | 10 | 11 | 8 | 13 |
